Experimental data as given in article PMC12040169 (PLOS Biology, 2025).

Assay: in vitro
Conditions: human, hela cells, % viability

Row | SMILES | viability at 28.5 h, 10 µM [%]
1 | COC(=O)c1ccccc1NC(=O)Nc1ccc(N2CCOCC2)c2nonc12 [CBK266830] | 90.6
2 | O=C(O)c1cccc(-n2c(S)nnc2-c2cnccn2)c1 [CBK269252] | 104
3 | Fc1ccc(C2=Nn3cnnc3SC2)c(F)c1 [CBK288078] | 97
4 | O=C(Nc1cccc([N+](=O)[O-])c1)c1ccc(CSc2ccccc2)cc1 [CBK265295] | 117
5 | FC(F)(F)Oc1cccc(OCCOc2nccnc2N2CCNCC2)c1 [CBK014323G] | 100
6 | COc1cc(NC(=O)COc2ccc3ccccc3c2)c(C(=O)O)cc1OC [CBK264181] | 103
7 | Cn1c(=O)c2c(nc(CN3CCC(Cc4ccccc4)CC3)n2CC(=O)c2ccccc2)n(C)c1=O [CBK236846] | 88
8 | Cc1nn(C)cc1C(=O)NC1CCCC1 [CBK057851] | 112
9 | CCc1nc(-c2ccc(N(C)C)nc2)n(C)n1 [CBK306897] | 90.6
10 | COC(=O)[C@H]1CN(C(=O)c2ccco2)C[C@@H]1c1ccc(F)cc1 [CBK283733] | 85.8
11 | CCNc1cc(-c2ccc(N3CCOCC3)cc2)ncn1 [CBK090876] | 115
12 | Cc1nccn1CCCn1cncc1-c1ccc2c(c1)CC(C)(C)O2 [CBK281809] | 106
13 | O=C(C1=C(O)C(=O)N(Cc2cccnc2)C1c1cccc(Oc2ccccc2)c1)c1ccc(Cl)cc1 (stereo not drawn) [CBK264698] | 86.6
14 | COC(=O)C(O)(CC(=O)Nc1ccc(C)c(F)c1)C(F)(F)F (stereo not drawn) [CBK267440] | 103
15 | CC(NC(=O)c1ncoc1-c1ccccc1)c1ccccn1 (stereo not drawn) [CBK283889] | 92.6
16 | CC1CCCCN1CC(=O)N(C)C(C)COc1ccc(Cl)cc1 (stereo not drawn) [CBK023201] | 87.8
17 | Cc1cccc(CNCC2CCN(C(=O)OC(C)(C)C)CC2)n1 [CBK056713] | 104
18 | CC(C)CSc1nnc(-c2ccccc2F)n1CC(C)C [CBK200091] | 95.8
19 | O=C1[C@@H]2CCCN2C(=O)c2ccccc2N1CCN1CCCC1 [CBK282857] | 96.3
20 | Cc1nc(C)n(CC2CN(Cc3cn4ccccc4n3)CCO2)n1 (stereo not drawn) [CBK303999] | 97.1
21 | O=C(C1CC2C=CC1C21CC1)N1CCC(Oc2cccc(F)c2)CC1 (stereo not drawn) [CBK281525] | 85.4
22 | Oc1cc(CCc2ccc(F)cc2)nc2ccnn12 [CBK281876] | 88.9

Row | SMILES | viability at 28.5 h, 10 µM [%]
23 | CCC1C(c2ccc(C)cc2)=CCC(C(=O)NCCCN(C)C)C1C (stereo not drawn) [CBK016514] | 79.6
24 | Cc1ccc(-c2cc(C(=O)O)[nH]n2)cc1 [CBK265462] | 101
25 | O=C(c1ccc(S(=O)(=O)N2CCCCCC2)cc1)N1CCC(CN2C(=O)c3cccc4cccc(c34)C2=O)CC1 [CBK263835] | 98.1
26 | CC(=O)Nc1ccc(S(=O)(=O)N2CCN(c3ccc([N+](=O)[O-])cc3C(F)(F)F)CC2)cc1 [CBK264944] | 112
27 | O=c1nc(NC2CCCCC2)sc2ncccc12 [CBK067024T] | 92.6
28 | CC(=O)N1CCN(c2ccc(NC(=O)CSc3ccc(C)cc3)cc2)CC1 [CBK269854] | 95.6
29 | CC(C(=O)N1CCC(C(=O)c2nccs2)CC1)c1ccccc1 (stereo not drawn) [CBK284163] | 80.8
30 | O=C(N[C@H]1CO[C@H]2[C@@H]1OC[C@@H]2Nc1nccc(-c2cccs2)n1)c1ccccc1 [CBK289516] | 84.5
31 | COc1ccc(-c2noc(CNC(=O)Cc3ccc(-c4ccccc4)cc3)n2)cc1 [CBK269272] | 105
32 | O=C(O)c1cc(NC(=O)c2ccco2)cc(NC(=O)c2ccco2)c1 [CBK263388] | 91.8
33 | Cc1ccc(NC(=O)CC2SC(NC3CCCCC3)=NC2=O)c(C)c1 (stereo not drawn) [CBK059500] | 87.9
34 | CCN1CCN(c2ccc(NC(=O)Cc3cn4ccsc4n3)cc2)CC1 [CBK305892] | 81.3
35 | Cc1nccn1CCCC(=O)NCC1(c2ccccc2F)CCCC1 [CBK281370] | 109
36 | CN(C)C(=O)c1cccc(-c2nccnc2NCc2cccc([N+](=O)[O-])c2)c1 [CBK036651] | 94.3
37 | COc1cccc(-c2nnnn2[C@H]2CO[C@H]3[C@@H]2OC[C@@H]3NC(=O)c2ccc(C)cc2)c1 [CBK289512] | 94.1
38 | Nc1ncc(-c2ccoc2)nc1NCc1ccco1 [CBK063652] | 97.2
39 | NC(=O)c1cccc(CNC2CCCN(c3cccnn3)C2)c1 (stereo not drawn) [CBK305115] | 103
40 | O=c1[nH]c2ccc(Oc3ccc4[nH]c(=O)c(=O)[nH]c4c3)cc2[nH]c1=O [CBK293978] | 101
41 | O=S(=O)(Nc1nc2ccccc2nc1Nc1ccccc1)c1ccccc1 [CBK260953] | 94.5
42 | Cc1cccc(-n2c(N)cc(=O)nc2SC(C)C(=O)Nc2ccc(S(N)(=O)=O)cc2)c1 (stereo not drawn) [CBK266173] | 99.7
43 | CC1(C)CC(NC(=O)C(=O)NC2CC(C)(C)NC(C)(C)C2)CC(C)(C)N1 [CBK261951] | 98.9
44 | O=C(NCc1cccc2ccccc12)N1CCN(c2ccccc2)CC1 [CBK155175] | 89.1

Row | SMILES | viability at 28.5 h, 10 µM [%]
45 | Cn1cc(C(=O)N2CCOCC2c2nc(-c3cccs3)no2)cn1 (stereo not drawn) [CBK305422] | 113
46 | COc1ccc2c(c1)C1(CC(=O)N(Cc3ccc(OC)c(OC)c3)C1=O)C(=O)N2C (stereo not drawn) [CBK075157] | 94.4
47 | CCNC(=O)C1CCCN(Cc2ncc(C)c(OC)c2C)C1 (stereo not drawn) [CBK305081] | 78
48 | O=C(Nc1ccc(F)cc1)c1[nH]c2ccccc2c1NS(=O)(=O)c1ccc(Cl)c(Cl)c1Cl [CBK050091] | 86.7
49 | O=C(O)c1ccn(-c2ccc(NS(=O)(=O)c3ccc(N4CCCC4=O)cc3)cc2)n1 [CBK298327] | 102
50 | COc1cc(Nc2nc(-c3cccc4ccccc34)cn3ccnc23)cc(OC)c1OC [CBK036608] | 96.1
51 | Cc1ccc(Nc2nc(N)nc(CSCCO)n2)cc1 [CBK265962] | 97.1
52 | COc1ccccc1-c1nc(C2CCCN(C(=O)NCCc3cccs3)C2)n2ccccc12 (stereo not drawn) [CBK047163] | 95.5
53 | CCCN1CCc2c(sc3nc(SCC(=O)c4ccccc4)n(-c4ccccc4)c(=O)c23)C1 [CBK262587] | 109
54 | CCN1CCCC2(CCN(C(=O)c3ccoc3)C2)C1 (stereo not drawn) [CBK132832] | 97.7
55 | O=C1[C@H]2CN(S(=O)(=O)c3ccc(F)cc3)CCN2C(=O)N1CCO [CBK289640] | 84.5
56 | O=C(Cc1ccccc1F)NCCn1nc2c(cc1=O)CCCCC2 [CBK284519] | 94.7
57 | O=C(CSc1nnc(-c2ccccc2F)n1-c1ccccc1)Nc1ccc2cn[nH]c2c1 [CBK267591] | 81.9
58 | Cc1cc(C(=O)O)ccc1NC(=O)CCCC(=O)O [CBK267917] | 90.8
59 | COC(=O)c1cn([C@H]2CO[C@H]3[C@@H]2OC[C@H]3OC(=O)Nc2ccccc2)nn1 [CBK289492] | 91.4
60 | Cc1n[nH]cc1-c1nsc(Nc2ccccc2)n1 [CBK113680] | 92.2
61 | CCCCN(C)c1c(C)nc2c(Oc3ncccn3)cccn12 [CBK147190] | 90.9
62 | CCc1ccc2c(c1)C(CCNC(=O)CCc1ccsc1)C(=O)N2 (stereo not drawn) [CBK305063] | 94.5
63 | CCc1cc(OCc2ccc(Cn3nc(NC(C)=O)c4ccccc43)cc2)c2ccccc2n1 [CBK048402] | 91
64 | O=C(Nc1ccc(Cl)cc1C(=O)O)c1ccccc1 [CBK269993] | 87.5
65 | Clc1ccc(Cn2ncc3c(NCc4cccnc4)ncnc32)cc1 [CBK300478] | 94.9
66 | Cn1cc(-c2nc(C(=O)NC3CCCN(c4ncccn4)C3)cs2)cn1 (stereo not drawn) [CBK305629] | 77.7

Row | SMILES | viability at 28.5 h, 10 µM [%]
67 | CC(C)(C)OC(=O)Nc1ccc2c(ccn2CCN2CCOCC2)c1 [CBK161767] | 95
68 | COc1ccc(NS(=O)(=O)c2ccc3c(c2)N(CC(=O)O)C(=O)CO3)cc1NS(C)(=O)=O [CBK297745] | 90.1
69 | CCN(CC)C(=O)CNS(=O)(=O)Cc1ccccc1[N+](=O)[O-] [CBK034504] | 94.3
70 | CC(=O)c1ccc(-c2nccnc2NCc2cccc([N+](=O)[O-])c2)s1 [CBK037509] | 106
71 | Cc1ccc(CN2C[C@@H](N)[C@H](c3cn(C)c4cnccc34)C2)o1 [CBK285180] | 84.2
72 | CN1CCC(C(=O)N2CCN(c3ncccn3)CC2)CC1 [CBK144511] | 102
73 | COc1cc(C(=O)NCC(=O)O)cc(Cl)c1OCC(C)C [CBK297485] | 80.8
74 | COc1cc([C@@]23CC[C@@H](NC(=O)Nc4ccc(F)c(F)c4)C[C@@H]2N(C)CC3)ccc1O [CBK049958C] | 90.3
75 | COc1cc2c(cc1C(C)c1ccc3c(c1)OCO3)OCO2 (stereo not drawn) [CBK200107] | 97.4
76 | CCN1CCN(C(=O)c2cccc3[nH]ccc23)CC1 [CBK200246] | 110
77 | CCCn1nc(C)cc1NC(=O)c1ncoc1-c1ccc(F)cc1 [CBK282361] | 88.7
78 | Cc1ccc(S(=O)(=O)N(C)c2ccnc(N3CCNCC3)n2)cc1 [CBK200009] | 107
79 | Oc1cccc(-c2cn3ccnc3c(NCc3ccccn3)n2)c1 [CBK037535] | 102
80 | COc1ccc2cc(/C=N/NC(=O)CN3CCCCC3)c(Cl)nc2c1 [CBK018181] | 95.3
81 | COc1ccc(C)cc1S(=O)(=O)N1CCc2c(CN3CCOCC3)cccc21 [CBK113630T] | 86.8
82 | COC(=O)c1sc(NC(=O)C2CCCCC2C(=O)O)c(C(=O)OC)c1C (stereo not drawn) [CBK265389] | 106
83 | CC(C)[C@H](NC(=O)C1CC(=O)N(c2ccc(F)cc2)C1)C(=O)N1CCCC1C(=O)O (stereo partly drawn) [CBK286723] | 95
84 | CCCn1c(SC(C)C(=O)Nc2ccc(S(=O)(=O)NC(C)C)cc2)n[nH]c1=O (stereo not drawn) [CBK295169] | 87.9
85 | Cc1ccc(CN(CCN(C)C)Cc2c(C)nn(C(C)C)c2C)o1 [CBK283235] | 100

Same assay, conditions: human, hela cells, % viability, bulk resorufin, single well

Row | SMILES | viability at 28.5 h, 10 µM [%]
86 | COc1ccc(CN2CCN(Cc3cc(Br)ccc3O)CC2)cc1 [CBK263640] | 99.4
87 | CN(C)CCCN/C=C1/C(=O)NC(=S)N(c2ccc(Cl)cc2)C1=O [CBK261828] | 91.6
